Data: PubChem BioAssay (NCI)
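Dose response: 5 concentrations. Exposure: 48 h. Format: 96-well plates. Endpoint: linear interpolation; highest concentration if not reached. GI50 marks 50% less growth. TGI marks complete inhibition of growth.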

How the values were obtained:
Assay in all cases: NCI-60 cell line screen, 48 h
[1] = system: RPMI-8226 leukemia
[2] = system: HL-60(TB) leukemia
[3] = system: NCI-H460 lung
[4] = system: A549 NSCLC
[5] = system: HCT-15 colon
[6] = system: TK-10 renal
[7] = system: OVCAR-4 ovarian
[8] = system: LOX IMVI melanoma
[9] = system: 786-0 renal
[10] = system: A498 renal

| Compound | GI50 [1] [µM] | TGI [1] [µM] | GI50 [2] [µM] | TGI [2] [µM] | GI50 [3] [µM] | TGI [3] [µM] | GI50 [4] [µM] | TGI [4] [µM] | GI50 [5] [µM] | TGI [5] [µM] | GI50 [6] [µM] | TGI [6] [µM] | GI50 [7] [µM] | TGI [7] [µM] | GI50 [8] [µM] | TGI [8] [µM] | GI50 [9] [µM] | TGI [9] [µM] | GI50 [10] [µM] | TGI [10] [µM] |
| --- | --- | --- | --- | --- | --- | --- | --- | --- | --- | --- | --- | --- | --- | --- | --- | --- | --- | --- | --- | --- |
| O=C([CH-]C(=O)c1ccccc1)c1ccccc1.O=C([CH-]C(=O)c1ccccc1)c1ccccc1.O=C([CH-]C(=O)c1ccccc1)c1ccccc1.[OH3+].[Y+3] | 6.04 | 32.2 | 2.4 | 11.5 | 4.29 | 34.6 | 13.2 | 38.9 | 4.96 | 22.8 | 7.78 | 68.4 | 8.77 | 46 | 3.74 | 17 | 4.72 | 21.8 | 16.3 | 43.1 |
| Cc1occc1C(=S)Nc1ccc(Cl)c(/C=N/OC(C)C)c1 | – | > 67.6 | – | 69.8 | – | > 57.5 | – | 54.2 | – | 42.8 | – | 55.8 | – | > 59.7 | – | 31.1 | – | 43.8 | – | 49.9 |
| COc1ccc(-c2ccc(/C=N/n3c(COc4ccc(Cl)cc4Cl)nn(CN4CCN(C)CC4)c3=S)o2)c([N+](=O)[O-])c1 | 9.37 | 50 | 16.3 | 43.9 | 15 | 45.1 | 20.8 | > 100 | 17 | 35.4 | 2.43 | 9.67 | 59.7 | > 100 | 11.4 | 25.2 | 21.4 | > 100 | 2.28 | 5.1 |
| NC(=S)N/N=C(\C(=O)Nc1cccc([N+](=O)[O-])c1)c1nc2ccc([N+](=O)[O-])cc2[nH]c1=O | – | > 100 | – | > 100 | – | > 100 | – | > 100 | – | > 100 | – | > 100 | – | > 100 | – | > 100 | – | > 100 | – | > 100 |
| Cn1nc(-c2ccccc2)nc1[N+](=O)[O-] | – | > 10 | – | > 10 | – | > 10 | – | > 10 | – | > 10 | – | > 10 | – | > 10 | – | > 10 | – | > 10 | – | > 10 |
| COC(=O)C12CC3CC(C1)CC(C(=O)OC)(C3)C2 | – | > 100 | – | > 100 | – | > 100 | – | > 100 | – | > 100 | – | > 100 | – | > 100 | – | > 100 | – | > 100 | – | > 100 |
| COc1ccc(C2=C(c3ccc(OC)c(OC)c3)C(=O)OC2)cc1 | 0.0497 | 0.329 | – | 1.51 | – | > 100 | 0.133 | > 100 | < 0.01 | 28.6 | – | 16.5 | > 58.4 | > 100 | < 0.01 | > 39.1 | < 0.01 | – | 0.0803 | 42.3 |
| Cc1cccc(Cl)c1NC(=O)/C=C/c1ccccc1 | – | > 100 | – | > 100 | – | > 100 | – | > 100 | – | > 100 | – | > 100 | – | 70.1 | – | > 100 | – | > 100 | – | > 100 |
